In data set [1] the test system is platelet aggregation. Description: Preclinical studies of prasugrel base versus clopidogrel. To be noted: preclinical studies involving the base of prasugrel.
The test system of data set [2] is ADP (5 μM and 20 μM)-induced platelet aggregation. Description: Clinical Example 3: responders by ADP-induced platelet aggregation (turbidometric aggregometry) after loading dose. In kind it is in vivo, human. To be noted: for responders: healthy volunteers. From the text: Clopidogrel Responders and Nonresponders: A Comparison with Prasugrel a Novel Thienopyridine P2Y12 Receptor Antagonist • Background: Lower levels of inhibition of platelet aggregation (IPA) with clopidogrel have been associated with a higher risk of adverse events after percutaneous coronary intervention (PCI). Thresholds of IPA, objectively defined with Bayesian classification theory, were used to identify responders and non-responders to clopidogrel and prasugrel, a novel thienopyridine P2Y12 receptor antagonist. • Methods: An integrated database of ADP (5 μM and 20 μM)-induced platelet aggregation as measured by turbidometric aggregometry was analyzed from three single-center cross-over clinical pharmacology studies. Subjects (N=112, aged 18-65 years) were healthy volunteers with a baseline maximum platelet aggregation (MPA) of >70% to 20 μM ADP and were randomized to either a clopidogrel 300 mg loading dose (LD) or a prasugrel 60 mg LD. The change in MPA (ΔMPA) from baseline and IPA were evaluated at both 4-5 and 24 hours after the LD. A responder was defined as an individual achieving either a ΔMPA≧15% or an IPA≧20% in response to 20 μM ADP.

Data set [3] concerns platelet aggregation induced by 20 μM ADP. Nature of the data set: Clinical Example 1: multiple-dose study, platelet aggregation induced by 20 μM ADP measured turbidometrically. In kind it is in vivo, human. The note with it: for IPA: 24 hours after 10th dose, mean ± SE, n = 6. Here is the method:
(§1) A Comparative Study of the Effects of Prasugrel and Clopidogrel on Platelet Function in Healthy Subjects • Background: Antiplatelet agents such as aspirin and clopidogrel are effective in the secondary prevention of atherothrombotic events. […] This study examined the tolerability, safety, and IPA profile of prasugrel compared with clopidogrel. • Method: A double-blind, placebo-controlled, multiple-dose study of healthy male volunteers randomized into 5 groups (n=6): prasugrel (5, 10 and 20 mg), clopidogrel (75 mg), and placebo. Study medications were taken once daily for 10 days.

The subject of data set [4] is platelet aggregation to 20 μM ADP. Nature of the data set: Clinical Example 2: IPA to 20 μM ADP by turbidometric aggregometry and non-responder rates in aspirin-treated patients. In kind it is in vivo, human. The note with it: for pre-dose IPA at day 28 / IPA at 4 h after LD: 20 μM ADP. Here is the method: This study analyzed IPA and non-responder rates with prasugrel (Pras), a novel P2Y12 antagonist, vs. clopidogrel (Clop) in aspirin-treated patients. • Methods: After 7-days on aspirin 325 mg, 101 subjects were randomized to 1 of 5 dosing regimens, a loading dose (LD) on day 1 and a daily maintenance dose (MD) on days 2-28: prasugrel—40 mg LD/5 mg MD, 40 mg LD/7.5 mg MD, 60 mg LD/10 mg MD, or 60 mg LD/15 mg MD or clopidogrel—300 mg LD/75 mg MD). IPA to 20 μM ADP was measured by turbidometric aggregometry.

The nature of data set [5]: Clinical Example 1: tolerability, safety and bleeding time. In kind it is in vivo, human. To be noted: healthy subjects; multiple oral dosing, 5 to 20 mg for 10 days. On the procedure:
as §1

Setting [6] is: 5 μM ADP, prasugrel 60 mg LD, N = 91.
Where [7] appears, read: 20 μM ADP, prasugrel 60 mg LD, N = 91.
The mark [8] stands for this setting: 5 μM ADP, clopidogrel 300 mg LD, N = 112.
[9] abbreviates: 20 μM ADP, clopidogrel 300 mg LD, N = 112.

On to `CC(=O)Oc1cc2c(s1)CCN(C(C(=O)C1CC1)c1ccccc1F)C2` (stereo not drawn) [prasugrel, 2-Acetoxy-5-(α-cyclopropylcarbonyl-2-fluorobenzyl)-4,5,6,7-tetrahydrothieno[3,2-c]pyridine], for which the “potency relative to clopidogrel” value in data set [1] was “at least 10 times”. Further, in data set [2] (setting [6]), the “Number of Responders, IPA ≧ 25%” value was found to be 91; the “Number of Responders, ΔMPA ≧ 20%” value is on record as 91; the “Percentage of Responders, IPA ≧ 25%” value worked out at 100%; the “Percentage of Responders, ΔMPA ≧ 20%” value came to 100%. In addition, in data set [2] (5 μM ADP, prasugrel 60 mg LD), the responders is on record as 100%. In data set [2] (setting [7]), the “Number of Responders, IPA ≧ 20%” value is listed as 91; the “Number of Responders, ΔMPA ≧ 15%” value was found to be 91; the “Percentage of Responders, IPA ≧ 20%” value is 100%; the “Percentage of Responders, ΔMPA ≧ 15%” value amounted to 100%. For the same compound, the responders in data set [2] (20 μM ADP, prasugrel 60 mg LD) is reported as 100%. The same compound gave an IPA in data set [3] (prasugrel 5 mg once daily for 10 days, 20 μM ADP) of 39.2 ± 4.4%. Besides, the IPA in data set [3] (prasugrel 10 mg once daily for 10 days, 20 μM ADP) stood at 58.2 ± 4.9%. The same compound came in with an IPA in data set [3] (prasugrel 20 mg once daily for 10 days, 20 μM ADP) of 68.3 ± 5.4%. Besides, the “IPA, range over doses” value in data set [3] (prasugrel 5, 10 and 20 mg once daily for 10 days, 24 hours after the final dose, 20 μM ADP) was 39.2%-68.3. Moreover, the “pre-dose IPA at day 28” value in data set [4] (prasugrel 10 mg MD, aspirin-treated patients) turned out to be 57.5%. For the same compound, the “pre-dose IPA at day 28” value in data set [4] (prasugrel 15 mg MD, aspirin-treated patients) was found to be 65.8%. Moreover, the “IPA at 4 h after LD” value in data set [4] (prasugrel 40 mg LD, aspirin-treated patients) is recorded as 60.6%. Further, the “IPA at 4 h after LD” value in data set [4] (prasugrel 60 mg LD, aspirin-treated patients) was 68.4%. In data set [4] (prasugrel LD of 40 or 60 mg and MD of 10 or 15 mg, aspirin-treated patients), the “rate of non-responders compared to standard clopidogrel LD and MD” value is “lower rate of non-responders”. In data set [5], the tolerability result was “well tolerated”.
For `COC(=O)[C@H](c1ccccc1Cl)N1CCc2sccc2C1` [clopidogrel, reference compound], in data set [2] (setting [8]), the “Number of Responders, IPA ≧ 25%” value is listed as 87; the “Number of Responders, ΔMPA ≧ 20%” value is 82; the “Percentage of Responders, IPA ≧ 25%” value was 78%; the “Percentage of Responders, ΔMPA ≧ 20%” value turned out to be 73%. Moreover, the responders result in data set [2] (5 μM ADP, clopidogrel 300 mg LD) was “approximately 75%”. In data set [2] (setting [9]), the “Number of Responders, IPA ≧ 20%” value was found to be 64; the “Number of Responders, ΔMPA ≧ 15%” value was 68; the “Percentage of Responders, IPA ≧ 20%” value is given as 57%; the “Percentage of Responders, ΔMPA ≧ 15%” value was 61%. The same compound yielded a responders in data set [2] (20 μM ADP, clopidogrel 300 mg LD) of 60%. The “subjects demonstrating minimal IPA at Day 10” value in data set [3] (clopidogrel 75 mg once daily for 10 days) is 2 of 6. In data set [3] (clopidogrel 75 mg once daily for 10 days, 20 μM ADP), this compound returned an IPA of 15.7%. In data set [3] (clopidogrel 75 mg once daily for 10 days, 20 μM ADP, listed as Clopidogrel), the IPA is on record as 15.7 ± 6.8%. In addition, in data set [4] (clopidogrel 75 mg MD, aspirin-treated patients), the “pre-dose IPA at day 28” value is 31.2%. Besides, the “non-responder rate (not achieving ≧20% IPA)” value in data set [4] (clopidogrel 75 mg MD, pre-dose during MD) was 46%. The “non-responder rate (not achieving ≧20% IPA)” value in data set [4] (clopidogrel 300 mg LD, 4 h after LD) turned out to be 52%. Besides, the “IPA at 4 h after LD” value in data set [4] (clopidogrel 300 mg LD, aspirin-treated patients) turned out to be 30.0%.

Source of the values: US20090156632A1, “DOSAGE REGIMEN FOR PRASUGREL” (priority 2005, published 2009).
